Measurements as given in paper PMC7401278, “Sortase A-Inhibitory Metabolites from a Marine-Derived Fungus Aspergillus sp” (Marine Drugs, 2020).
In brackets after ≈: the same amount, converted by molar mass. Read-outs that look alike come from different tables or passages of the source.

Assays:
S. aureus ATCC6538p = experiment: Antibacterial activity assay (MIC); format: cell-based; details: Staphylococcus aureus, overnight at 37 °C
Method: (§1) Because SrtA inhibitors are expected to serve as anti-infective agents and inhibit bacterial pathogenesis without affecting cell viability, the minimum inhibitory concentrations (MICs) of these compounds were also measured to exclude the possible effects of test compounds on S. aureus cell adhesion to the eukaryotic cell matrix protein fibronectin owing to the inhibition of cell growth.
The MICs of test compounds were determined as previously described. S. aureus ATCC6538p (5 mL) was cultured in tryptic soy broth to saturation at 37 °C and diluted to an OD600 of 0.01. The culture was incubated for an additional 2 h and diluted to an OD600 of 0.005. In each well of a 96-well plate, 180 µL of cells was mixed with 20 µL of a concentrated test compound solution in 10% DMSO (final concentration, 1% DMSO). Culture plates were incubated overnight at 37 °C, and the OD600 was measured using a Multiskan Spectrum spectrophotometer (Thermo Labsystems Inc., Beverly, MA, USA). MIC values were defined as the lowest concentration of the test compounds inhibiting cell growth. Ampicillin was used as a positive control.

[1] = molecular target: T1, recombinant SrtA derived from S. aureus ATCC6538p (Staphylococcus aureus, UniProt Q2FV99); experiment: SrtA inhibition assay (fluorescence, cleavage of dabcyl-LPETG-edans); format: biochemical; details: 37 °C, 1 h
T1 construct: made in house; host or cells: Escherichia coli
T1 sequence (Q2FV99 whole entry): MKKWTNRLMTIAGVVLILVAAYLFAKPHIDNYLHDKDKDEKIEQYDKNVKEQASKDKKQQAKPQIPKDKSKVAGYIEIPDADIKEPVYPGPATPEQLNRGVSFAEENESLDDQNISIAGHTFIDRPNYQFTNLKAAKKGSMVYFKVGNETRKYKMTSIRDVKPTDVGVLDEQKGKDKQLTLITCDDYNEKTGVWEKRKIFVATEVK
Method: Recombinant SrtA derived from S. aureus ATCC6538p was purified from Escherichia coli extracts using metal chelate-affinity chromatography. The enzyme activity was determined from the fluorescence intensity upon cleavage of a peptide substrate containing the LPETG motif. Throughout the separation process, the crude extract and chromatographic fractions containing fungal metabolites of strain F452 inhibited the activity of SrtA. Accordingly, the same bioassay was performed using pure compounds.
The srtA gene from S. aureus ATCC6538p was expressed and recombinant SrtA was purified as previously described. The SrtA inhibition test was carried out by analyzing the increased fluorescence intensity resulting from the cleavage of synthetic peptide substrate dabcyl-LPETG-edans (AnaSpec, Inc., Fremont, CA, USA) with slight modification. The reaction was carried out with 100 μL buffer (50 mM Tris-HCl, 5 mM CaCl2, and 150 mM NaCl, pH 7.5), 7.5 µM synthetic peptide, 7.5 µM purified SrtA, and test samples at various concentrations. […] The SrtA inhibition assay was conducted at 37 °C for 1 h, and inhibition was quantified fluorometrically using a microplate reader (FLx800, BioTek Instruments, Winooski, VT, USA) at excitation and emission wavelengths of 350 and 495 nm, respectively. pHMB and berberine chloride were used as reference inhibitors of SrtA.

[2] = Cytotoxicity assay (SRB), K562; format: cell-based; details: human, K562 (leukemia) cells, K562, 72 h
Method: as §1
(§2) The effect of compounds (1–8) on cell proliferation was measured by the sulforhodamine B (SRB) cellular protein-staining method. In brief, A549 (lung cancer) and K562 (leukemia) cells (1 × 10^4 cells in 190 μL of complete DMEM) were seeded in 96-well plates with various concentrations of compounds (1–8) and incubated at 37 °C in a humidified atmosphere with 5% CO2. After 72 h of compound (1–8) treatment, the cells were fixed with 10% TCA solution for 1 h, and cellular proteins were stained with a solution of 0.4% SRB in 1% acetic acid. The stained cells were dissolved in 10 mM Tris buffer (pH 10.0). The effect of compounds (1–8) on cell viability was calculated as a percentage relative to a solvent-treated control, and the IC50 values were calculated using a nonlinear regression analysis (percent survival versus concentration). Etoposide was used as a positive control.

[3] = Cytotoxicity assay (SRB), A549; format: cell-based; details: human, A549 (lung cancer) cells, A549, 72 h
Method: as §1, §2

PC-12 cells = test system: PC-12 cells; set-up: method as in PMID 14698172; details: cited from earlier work
SrtA = molecular target: T2, SrtA (Staphylococcus aureus, UniProt Q2FV99); experiment: SrtA enzyme kinetics (Lineweaver-Burk, Dixon plot, dialysis); format: biochemical; details: for type of inhibition: Lineweaver and Burk plot, at IC50 or twofold IC50; for binding to SrtA (reversibility): enzyme activity recovered by dialysis within 2 h
T2 construct: made in house; host or cells: Escherichia coli
T2 sequence (Q2FV99 whole entry): as above
Method: To determine the type of inhibition, kinetic studies were performed with compounds 1 and 3 at IC50 or twofold IC50 based on a Lineweaver and Burk plot (Figure 2). Inhibitor constants were obtained by a Dixon plot. […] Moreover, the binding of compounds 1 and 3 to SrtA was reversible because the enzyme activity was indeed recovered by dialysis within 2 h, excluding the possible existence of a covalent bond between inhibitor and enzyme.
All sortase (SrtA) assays were performed at 37 °C in SrtA enzyme buffer as described above. The inhibitors 1 and 3 were dissolved in DMSO and immediately diluted to the desired working concentration with the same SrtA buffer. The enzymatic inhibition measurements were carried out at different substrate concentrations in the presence and absence of a given concentration of inhibitor, and their kinetics were evaluated by the Lineweaver and Burk plot method. For the dialysis kinetic studies, a solution of enzyme (0.96 mL, 75 μM) and fixed inhibitor concentration (0.04 mL) was prepared and dialyzed against 100 mL buffer at 37 °C for 2 h using regenerated cellulose dialysis membranes SPECTRAPOR® (Rancho Dominguez, CA, USA). Aliquots of 100 μL of the enzyme-inhibitor mixture were taken in time intervals of 0, 30, 60, 90, and 120 min and added to 0.020 mL of substrate (7.5 μM), and after an hour of incubation the enzyme activity was measured. A control solution prepared with enzyme and buffer (SrtA buffer, 100 μL; SrtA, 7.5 μM) was treated similarly.

[4] = test system: S. aureus strain Newman (wild-type) adhesion to fibronectin; experiment: Fibronectin-binding assay; format: cell-based, Staphylococcus aureus
Text: An active SrtA enzyme is required for the attachment of S. aureus to eukaryotic cell matrix proteins, such as fibronectin and fibrinogen, thus accelerating bacterial adhesion to host tissues and subsequent invasion. The srtA^− mutant strain cannot bind these proteins. Thus, SrtA inhibitors should inhibit SrtA activity in vivo and in turn reduce fibronectin-binding protein surface display. Initially, the SrtA-mediated fibronectin-binding capacities of S. aureus strain Newman (wild-type) and its isogenic srtA knockout mutant (srtA^−) to fibronectin were evaluated. […] Based on SrtA inhibition intensity, compound 1 was selected. The results of the inhibition of S. aureus adhesion to fibronectin via fibronectin-binding protein by compound 1 are shown in Figure 3b.
S. aureus strains used were Newman (wild-type) and the isogenic srtA knockout mutant (srtA^−). These strains were cultured in tryptic soy broth at 37 °C at 200 rpm up to mid-log phase (OD600 = 0.5). The fibronectin-binding assay was performed as described previously. Cells were treated with test compounds at their indicated concentrations. Every 30 min for 2.5 h, a 0.65 mL cell suspension was centrifuged at 10,000× g for 10 min, and the supernatant was eliminated. […] Plates were dried overnight and absorbance was measured at 560 nm using a microplate reader.

Colletotrichum acutatum = test system: Colletotrichum acutatum; set-up: method as in PMID 26998701; details: cited from earlier work
Bacillus subtilis = test system: Bacillus subtilis; set-up: method as in PMID 26363876; details: cited from earlier work
[5] = test system: human prostate cancer cell line PC3; set-up: method as in PMID 26363876; details: cited from earlier work
[6] = SrtA IC50, recombinant SrtA, value in parentheses

## CC1(C)S[C@@H]2[C@H](NC(=O)[C@H](N)c3ccccc3)C(=O)N2[C@H]1C(=O)O [Ampicillin, reference compound]
S. aureus ATCC6538p
  MIC: 0.4 µM
S. aureus ATCC6538p; value in parentheses
  MIC: 0.1 µg/mL

## COc1ccc2cc3[n+](cc2c1OC)CCc1cc2c(cc1-3)OCO2 [Berberine chloride, berberine chloride, reference compound]
[1]; SrtA IC50, recombinant SrtA
  IC50: 85.9 ± 1.2 µM
[1]; [6]
  IC50: 94.8 µM
S. aureus ATCC6538p
  MIC: > 332 µM
S. aureus ATCC6538p; value in parentheses
  MIC: > 128 µg/mL

## CC1CCC2C(C=CC(C)(O)C2(C)C(=O)CCO)C1 (stereo not drawn) [Compound 1, aspermytin A]
[2]
  IC50 at 72 h: > 100 µM
[3]
  IC50 at 72 h: > 100 µM
PC-12 cells
  neurotrophic effects: significant neurotrophic effects
[1]; SrtA IC50, recombinant SrtA
  IC50: 146 ± 2.3 µM
[1]; [6]
  IC50: 146 ± 0.6 µM
SrtA
  Ki: 265 µM
  type of inhibition: mixed inhibitor
  binding to SrtA (reversibility): reversible
[4]; 4× the SrtA IC50 value
  onset and magnitude of inhibition of Newman strain adhesion to fibronectin: comparable to the behavior of the untreated srtA knockout mutant
[4]; strain Newman, 0-, 1-, 2-, or 4-fold the SrtA IC50
  bacterial adherence to fibronectin-coated surfaces: significantly reduced
S. aureus ATCC6538p
  MIC: > 480 µM
S. aureus ATCC6538p; value in parentheses
  MIC: > 128 µg/mL

## CCC(C)C1NC(=O)C(C(C)C)n2c1nc1ccc(OC)cc1c2=O (stereo not drawn) [Compound 2, versicomide A]
[2]
  IC50 at 72 h: 13 to 50 µM
[3]
  IC50 at 72 h: 13 to 50 µM
[1]; SrtA IC50, recombinant SrtA
  IC50: 269 ± 3.9 µM
[1]; [6]
  IC50: 269.3 ± 1.4 µM
S. aureus ATCC6538p
  MIC: > 373 µM
S. aureus ATCC6538p; value in parentheses
  MIC: > 128 µg/mL

## CCC(C)C1NC(=O)C(C(C)C)n2c1nc1c(c2=O)C=C(OC)C=CO1 (stereo not drawn) [Compound 3, versicoloid A]
[2]
  IC50 at 72 h: 13 to 50 µM
[3]
  IC50 at 72 h: 13 to 50 µM
Colletotrichum acutatum
  minimum inhibitory concentration (MIC): 1.6 µg/mL (≈ 4.45 µM)
[1]; SrtA IC50, recombinant SrtA
  IC50: 193 ± 2.5 µM
[1]; [6]
  IC50: 193.4 ± 0.899 µM
SrtA
  Ki: 83 µM
  type of inhibition: uncompetitive inhibitor
  binding to SrtA (reversibility): reversible
S. aureus ATCC6538p
  MIC: > 356 µM
S. aureus ATCC6538p; value in parentheses
  MIC: > 128 µg/mL

## CC1C(=O)N2c3ccccc3C3(O)CC(n4cnc5ccccc5c4=O)C(=O)N1C23 (stereo not drawn) [Compound 4, isochaetominine A]
[2]
  IC50 at 72 h: 13 to 50 µM
[3]
  IC50 at 72 h: 13 to 50 µM
[1]; SrtA IC50, recombinant SrtA
  IC50: 268 ± 4.1 µM
[1]; [6]
  IC50: 267.9 ± 1.5 µM
S. aureus ATCC6538p
  MIC: > 318 µM
S. aureus ATCC6538p; value in parentheses
  MIC: > 128 µg/mL

## CCC1C(=O)N2c3ccccc3C3(O)CC(n4cnc5ccccc5c4=O)C(=O)N1C23 (stereo not drawn) [Compound 5, isochaetominine B]
[2]
  IC50 at 72 h: 13 to 50 µM
[3]
  IC50 at 72 h: 13 to 50 µM
[1]; SrtA IC50, recombinant SrtA
  IC50: 232 ± 3.7 µM
[1]; [6]
  IC50: 232.4 ± 1.4 µM
S. aureus ATCC6538p
  MIC: > 307 µM
S. aureus ATCC6538p; value in parentheses
  MIC: > 128 µg/mL

## CC(C)C1C(=O)N2c3ccccc3C3(O)CC(n4cnc5ccccc5c4=O)C(=O)N1C23 (stereo not drawn) [Compound 6, isochaetominine C]
[2]
  IC50 at 72 h: 13 to 50 µM
Bacillus subtilis
  inhibition against Bacillus subtilis: weak inhibition
[3]
  IC50 at 72 h: 13 to 50 µM
[1]; SrtA IC50, recombinant SrtA
  IC50: 216 ± 2.5 µM
[1]; [6]
  IC50: 216.3 ± 1.1 µM
S. aureus ATCC6538p
  MIC: > 297 µM
S. aureus ATCC6538p; value in parentheses
  MIC: > 128 µg/mL

## CC(C)C1C(=O)N2c3ccccc3C3(O)CC(n4cnc5ccccc5c4=O)C(=O)N1C23 (stereo not drawn) [Compound 7, 14-epi-isochaetominine C]
[5]
  cytotoxic activity: weak cytotoxic activity
[1]; SrtA IC50, recombinant SrtA
  IC50: 237 ± 3.8 µM
[1]; [6]
  IC50: 237.2 ± 1.2 µM

## CC12NC(=O)C(Cc3c1[nH]c1ccccc31)n1c2nc2ccccc2c1=O (stereo not drawn) [Compound 8, fumiquinazoline K]
[2]
  IC50 at 72 h: > 100 µM
[3]
  IC50 at 72 h: > 100 µM
[1]; read-out: SrtA IC50, recombinant SrtA
  IC50: 235 ± 2.6 µM
[1]; read-out: SrtA IC50, recombinant SrtA, value in parentheses
  IC50: 235.1 ± 0.9 µM
S. aureus ATCC6538p
  MIC: > 359 µM
S. aureus ATCC6538p; value in parentheses
  MIC: > 128 µg/mL

## COc1cc([C@@H]2c3cc4c(cc3[C@@H](O[C@@H]3O[C@@H]5CO[C@@H](C)O[C@H]5[C@H](O)[C@H]3O)[C@H]3COC(=O)[C@H]23)OCO4)cc(OC)c1O [etoposide, reference compound]
[2]
  IC50 at 72 h: 0.5 µM
[3]
  IC50 at 72 h: 0.5 µM

## O=C(O)c1cc[c]([Hg][OH])cc1 [pHMB, para-hydroxymercuribenzoic acid, reference compound]
[1]; recombinant SrtA, read-out: SrtA IC50
  IC50: 112 ± 1.7 µM
[1]; recombinant SrtA, value in parentheses
  SrtA IC50: 33.1 ± 0.5 µg/mL
